Data taken from patent publication US12144788B2, “Visual cycle modulators” (CASE WESTERN RESERVE UNIVERSITY, priority 2017, dated 2024).
“Also recorded” adds a separate entry of the source.

Legend:
[1] = tested on: visual chromophore regeneration in C57BL6J mouse eyes; assay: visual chromophore recovery assay (ocular 11-cis-retinal by HPLC after bleach); assay type: in vivo
Description: FIG. 4 illustrates inhibition of visual chromophore regeneration in C57BL6J mouse eyes by MB compounds. The MB drugs were administrated to mice by oral gavage 24 h prior to light exposure for 10 min. Then all mice recovered under darkness for 6 h.
Abca4^−/−Rdh8^−/− mice on a C57BL/6J background were generated as previously described. Male and female WT mice with C57BL/6J backgrounds were obtained from The Jackson Laboratory. Abca4^−/−Rdh8^−/− mice used in this study were homozygous for the Leu450 allele of Rpe65 as determined by a genotyping protocol published previously and free of Crb1/rd8 and rd/rd mutations Animals were housed either in the animal facility at the Case Western Reserve University School of Medicine, where they received a standard chow diet (LabDiet 5053) and were maintained under a 12-h light (˜300 lux) and 12-h dark cycle or at the Cole Eye Institute animal facility where they were. Mice were dark adapted overnight prior to all experiments. A cohort of Rdh8^−/−Abca4^−/− or C57BL/6J mice was used when they reached the age of 1 to 2 months, and both sexes were used evenly. All tested primary amines were suspended in 100 μl soybean oil with less than 10% (v/v) DMSO and were administered by oral gavage with a 22-gauge feeding needle. Experimental manipulations in the dark were done under dim red light transmitted through a Kodak No. 1 Safelight Filter (transmittance >560 nm).
After bright light exposure resulting in photoactivation of 95% of rhodopsin, mice were kept in the dark for 6 h. Then, the animals were euthanized and their eyes were collected and homogenized in 10 mM sodium phosphate buffer, pH 7.4, containing 50% methanol (v/v) and 40 mM hydroxylamine. The resulting mixture was extracted with 4 ml of hexanes.
Next, we tested the effects of the MB compound series on retinoid cycle function in the living mouse. […] After the light treatment, mice were allowed to dark adapt for 6 h before their ocular retinoid content was determined by HPLC. […] To examine the possibility that the lack of MB-008 efficacy at 24 h was due to insufficient concentrations resulting from a shorter elimination half-life or poorer bioavailability, we repeated the experiment with the mice subjected to light exposure 4 h after MB-008 administration. A 100 μg dose of MB-008 suppressed visual chromophore regeneration by ˜80%, supporting the idea that the retinal concentration of MB-008 could be sub-effective at the longer post-treatment light challenge.

[2] = quantification of MB-005 in mouse eyes by LC-ESI-MS/MS; assay type: in vivo; conditions: 1 mg dose oral gavage
Description: MB-005 (1 mg/mouse) was administrated by oral gavage to C57BL/6J mice, which were then kept in the dark for 4-24 h. Then, mice were euthanized, and their eyes were homogenized in 1 ml of 10 mM sodium phosphate buffer, pH 7.4, containing 50% methanol (v/v). The resulting mixture was extracted with 4 ml EtOAc. […] This solution (100 μl) was analyzed by liquid chromatography—electrospray ionization—MS/MS (LC-ESI-MS/MS) (4.6 mm×150 mm; Agilent ZORBAX Eclipse XDB-C18) with a gradient of acetonitrile in water (0%-100% in 30 min) as the eluent at a flow rate of 0.5 ml/min.
To confirm the ocular distribution of this compound series, we directly measured the quantity of MB-005 in the eye by mass spectrometry after a 1 mg dose. […] This minimal change in ocular MB-005 concentration contrasts with the ˜3-fold greater inhibition of visual cycle function observed at 4 h versus 24 h for this compound.

ocular level of MB-005 ([2]; 6 h after treatment): ~140 ng/eye
ocular level of MB-005 ([2]; 24 h post-treatment time point versus 6 h): declined only slightly
SMILES: CC(C)c1cc(OCC2CCCCC2)cc(C(O)CCN)c1 (stereo not shown) [MB-005, 3-Amino-1-(3-(cyclohexylmethoxy)-5-isopropylphenyl)propan-1-ol]
effect on 11-cis-retinal recovery / visual cycle function ([1]; 500 μg (0.5 mg/mouse) oral gavage 24 h before light exposure, 6 h dark): minimal effects; also recorded: no measurable effect
visual cycle function ([1]; 2 mg/mouse oral gavage): severely impaired
fold greater inhibition of visual cycle function at 4 h versus 24 h ([1]; 4 h versus 24 h between dose and light): ~3 fold
effect of shortening the time between drug administration and the light challenge ([1]; shorter interval versus 24 h): enhanced the inhibitory effects
inhibition of 11-cis-retinal recovery (suppression of visual chromophore regeneration) ([1]; two-fold higher dose than 500 μg (1 mg per mouse), oral gavage 24 h before light exposure): ~50% and approximately 60%
